Assay results taken from patent US20040142888A1, “Modulators of RabGGT and methods of use thereof” (priority 2002, published 2004).

How the values were obtained:
C. elegans germline = assay: Apoptosis in the C. elegans germline (apoptotic corpses per germline arm), after compound and/or RNAi treatment; format: in vivo; settings: for increase in apoptotic corpses / % arms with >2 corpses / Corpses/germline arm, mean / Frequency: germline arms with 0 apoptotic corpses / Frequency: germline arms with 1 apoptotic corpse / Frequency: germline arms with 2 apoptotic corpses / Frequency: germline arms with 3 apoptotic corpses / Frequency: germline arms with 4 apoptotic corpses / Frequency: germline arms with >4 apoptotic corpses: 7B at 1.6 mM
HCT116 colon tumor = settings: HCT116 xenograft, 600 mg/kg orally once daily for ten doses, cited from earlier work
[1] = wild-type worms, 7B 0.3 mM and/or RNAi against RabGGT alpha subunit

## N#Cc1ccc2c(c1)CN(S(=O)(=O)N1CCCCC1)[C@H](Cc1ccccc1)CN2Cc1cnc[nH]1 [Compound 7B]
C. elegans germline; APAF-1/ced-4 mutants
  increase in apoptotic corpses: no increase in corpses was observed
C. elegans germline; WT worms
  % arms with >2 corpses: 100%
  Corpses/germline arm, mean: 6.25
  Frequency: germline arms with 0 apoptotic corpses: 0
  Frequency: germline arms with 1 apoptotic corpse: 0
  Frequency: germline arms with 2 apoptotic corpses: 0
  Frequency: germline arms with 3 apoptotic corpses: 1
  Frequency: germline arms with 4 apoptotic corpses: 0
  Frequency: germline arms with >4 apoptotic corpses: 10
C. elegans germline; caspase/ced-3 mutants
  increase in apoptotic corpses: no increase in corpses was observed
C. elegans germline; ced3 mutant worms
  % arms with >2 corpses: 0%
  Corpses/germline arm, mean: 0.08
  Frequency: germline arms with 0 apoptotic corpses: 12
  Frequency: germline arms with 1 apoptotic corpse: 1
  Frequency: germline arms with 2 apoptotic corpses: 0
  Frequency: germline arms with 3 apoptotic corpses: 0
  Frequency: germline arms with 4 apoptotic corpses: 0
  Frequency: germline arms with >4 apoptotic corpses: 0
C. elegans germline; ced4 mutant worms
  % arms with >2 corpses: 0%
  Corpses/germline arm, mean: 0.15
  Frequency: germline arms with 0 apoptotic corpses: 11
  Frequency: germline arms with 1 apoptotic corpse: 2
  Frequency: germline arms with 2 apoptotic corpses: 0
  Frequency: germline arms with 3 apoptotic corpses: 0
  Frequency: germline arms with 4 apoptotic corpses: 0
  Frequency: germline arms with >4 apoptotic corpses: 0
C. elegans germline; wild-type adult worms, compound at 0.8 mM or higher
  observed number of apoptotic corpses per germline arm: 5-7
C. elegans germline; [1]
  % arms with 0-2 corpses: 50%
  % arms with 3-4 corpses: 33%
  % arms with >4 corpses: 17%
  Corpses/arm, mean: 2.3
  Frequency: arms with 0 apoptotic corpses: 5
  Frequency: arms with 1 apoptotic corpse: 5
  Frequency: arms with 2 apoptotic corpses: 2
  Frequency: arms with 3 apoptotic corpses: 5
  Frequency: arms with 4 apoptotic corpses: 3
  Frequency: arms with >4 apoptotic corpses: 4

## CCCS(=O)(=O)N1Cc2cc(C#N)ccc2N(Cc2cnc[nH]2)C[C@H]1Cc1ccccc1 [Compound 7H]
HCT116 colon tumor
  death attributed to drug related toxicity (among eight mice treated): one
HCT116 colon tumor; cure = no mass larger than 35 mg
  mice that experienced cure of the tumor (among eight mice treated): seven
